Experimental data as given in patent publication US10399987B2, “TGF beta receptor antagonists” (BRISTOL-MYERS SQUIBB COMPANY, priority 2015, dated 2019).

Biological target: HIS-TGFβR1 T204D (Homo sapiens (Human), UniProt P36897, T204D)
Assay: TGFβR1 HIS T204D HTRF assay (labeled small molecule probe, anti-HIS detection antibody)
Assay type: binding
Conditions: 1 nM HIS-TGFβR1 T204D, probe at Kd, 1 hour at room temperature, eleven concentrations

Sequence of HIS-TGFβR1 T204D (P36897 34-503 T204D): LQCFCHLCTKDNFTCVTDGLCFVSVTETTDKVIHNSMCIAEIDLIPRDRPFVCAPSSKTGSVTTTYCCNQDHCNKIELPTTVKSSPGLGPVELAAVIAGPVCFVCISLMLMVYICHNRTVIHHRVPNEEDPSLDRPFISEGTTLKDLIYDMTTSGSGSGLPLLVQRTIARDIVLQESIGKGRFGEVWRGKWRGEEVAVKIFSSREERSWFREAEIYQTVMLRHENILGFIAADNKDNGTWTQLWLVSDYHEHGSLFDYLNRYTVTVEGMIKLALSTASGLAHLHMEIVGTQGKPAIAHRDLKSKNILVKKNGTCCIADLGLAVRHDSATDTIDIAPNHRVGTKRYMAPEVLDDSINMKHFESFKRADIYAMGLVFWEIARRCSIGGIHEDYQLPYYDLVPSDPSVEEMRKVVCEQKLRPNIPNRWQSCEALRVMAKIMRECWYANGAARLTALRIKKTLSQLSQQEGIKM

SMILES | IC50
O=C(CN1CCOCC1)Nc1cc(Nc2nc(-c3cccc(C(F)(F)F)n3)nc3[nH]ccc23)ccn1 [Example 32, 2-morpholino-N-(4-((2-(6-(trifluoromethyl)pyridin-2-yl)-7H-pyrrol[2,3-d]pyrimidin-4-yl)amino)pyridin-2-yl)acetamide] | 0.77 nM
CC(=O)Nc1cc(Nc2nc(-c3cccc(C(F)F)n3)nc3[nH]ccc23)c(F)cn1 [Example 16, N-(4-((2-(6-(difluoromethyl)pyridin-2-yl)-7H-pyrrolo[2,3-d]pyrimidin-4-yl)amino)-5-fluoropyridin-2-yl)acetamide] | 0.71 nM

The next lines start with the values.

IC50 | SMILES
4.5 nM | Cc1c[nH]c2nc(-c3cccc(C(F)(F)F)n3)nc(Nc3ccncc3F)c12 [Example 34, N-(3-fluoropyridin-4-yl)-5-methyl-2-(6-(trifluoromethyl)pyridin-2-yl)-7H-pyrrolo[2,3-d]pyrimidin-4-amine]
0.25 nM | Cc1cccc(-c2nc(Nc3ccncc3F)c3c(C)c[nH]c3n2)n1 [Example 33, N-(3-fluoropyridin-4-yl)-5-methyl-2-(6-methylpyridin-2-yl)-7H-pyrrolo[2,3-d]pyrimidin-4-amine]
1 nM | Cc1cnccc1Nc1nc(-c2ccc(F)c(C)n2)nc2[nH]ccc12 [Example 45, N-[2-(5-fluoro-6-methylpyridin-2-yl)-7H-pyrrolo[2,3-d]pyrimidin-4-yl]-3-methylpyridin-4-amine]
